# Marks after values point to notes of the source that are not given here.
# Assay: Solubilization of ticagrelor in unbuffered cyclodextrin stock solutions in milli Q water, appearance on shaking platform;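 note: plus means clear and fully dissolved while plus-minus means clear solution with precipitation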
# Assay type: physicochemical
# Procedure: In a first example two different types of cyclodextrin were used and compared for the solubilization of ticagrelor. An unbuffered stock solution of HPBCD or SBECD was made in water at the target concentrations of 20 w/w %, 25 w/w %, 30 w/w %, 35 w/w % and 40 w/w %. Ticagrelor was added slowly under vortex. Ticagrelor was used at concentrations of 5, 10 or 14 mg/ml in milli Q water. The ticagrelor-cyclodextrin solutions were left on a shaking platform. No sonification or heat was applied.
compound,measurement,setting,value
"CCCSc1nc(N[C@@H]2C[C@H]2c2ccc(F)c(F)c2)c2nnn([C@@H]3C[C@H](OCCO)[C@@H](O)[C@H]3O)c2n1 [ticagrelor, (1S,2S,3R,5S)-3-{7-[(1R,2S)-2-(3,4-difluorophenyl)cyclopropylamino]5-(propylthio)-3H-(1,2,3)triazolo (4,5-D)pyrimidin-3-yl}-5-(2 hydroxyethoxy) cyclopentane-1,2-diol]",Appearance in cyclodextrin,"HPβCD 20% w/w, ticagrelor 5 mg/ml, after 5 min of shaking",− (translucent solution with precipitation)
same,Appearance in cyclodextrin,"HPβCD 20% w/w, ticagrelor 5 mg/ml, after 30 min of shaking",+/−
same,Appearance in cyclodextrin,"HPβCD 20% w/w, ticagrelor 5 mg/ml, after 60 min of shaking",+/−
same,Appearance in cyclodextrin,"HPβCD 20% w/w, ticagrelor 5 mg/ml, after 3 h of shaking",+/−
same,Appearance in cyclodextrin,"HPβCD 20% w/w, ticagrelor 5 mg/ml, after overnight shaking",− (translucent solution with precipitation)
same,Appearance in cyclodextrin,"HPβCD 20% w/w, ticagrelor 10 mg/ml, after 5 min of shaking",− (translucent solution with precipitation)
same,Appearance in cyclodextrin,"HPβCD 20% w/w, ticagrelor 10 mg/ml, after 30 min of shaking",− (translucent solution with precipitation)
same,Appearance in cyclodextrin,"HPβCD 20% w/w, ticagrelor 10 mg/ml, after 60 min of shaking",− (translucent solution with precipitation)
same,Appearance in cyclodextrin,"HPβCD 20% w/w, ticagrelor 10 mg/ml, after 3 h of shaking",− (translucent solution with precipitation)
same,Appearance in cyclodextrin,"HPβCD 20% w/w, ticagrelor 10 mg/ml, after overnight shaking",− (translucent solution with precipitation)
same,Appearance in cyclodextrin,"HPβCD 20% w/w, ticagrelor 14 mg/ml, after 5 min of shaking",− (translucent solution with precipitation)
same,Appearance in cyclodextrin,"HPβCD 20% w/w, ticagrelor 14 mg/ml, after 30 min of shaking",− (translucent solution with precipitation)
same,Appearance in cyclodextrin,"HPβCD 20% w/w, ticagrelor 14 mg/ml, after 60 min of shaking",− (translucent solution with precipitation)
same,Appearance in cyclodextrin,"HPβCD 20% w/w, ticagrelor 14 mg/ml, after 3 h of shaking",− (translucent solution with precipitation)
same,Appearance in cyclodextrin,"HPβCD 20% w/w, ticagrelor 14 mg/ml, after overnight shaking",− (translucent solution with precipitation)
same,Appearance in cyclodextrin,"HPβCD 25% w/w, ticagrelor 5 mg/ml, after 5 min of shaking",− (translucent solution with precipitation)
same,Appearance in cyclodextrin,"HPβCD 25% w/w, ticagrelor 5 mg/ml, after 30 min of shaking",+/−
same,Appearance in cyclodextrin,"HPβCD 25% w/w, ticagrelor 5 mg/ml, after 60 min of shaking",+/−
same,Appearance in cyclodextrin,"HPβCD 25% w/w, ticagrelor 5 mg/ml, after 3 h of shaking",+/−
same,Appearance in cyclodextrin,"HPβCD 25% w/w, ticagrelor 5 mg/ml, after overnight shaking, after one hour of sonication","+* (clear, appeared completely dissolved)"
same,Appearance in cyclodextrin,"HPβCD 25% w/w, ticagrelor 10 mg/ml, after 5 min of shaking",− (translucent solution with precipitation)
same,Appearance in cyclodextrin,"HPβCD 25% w/w, ticagrelor 10 mg/ml, after 30 min of shaking",− (translucent solution with precipitation)
same,Appearance in cyclodextrin,"HPβCD 25% w/w, ticagrelor 10 mg/ml, after 60 min of shaking",− (translucent solution with precipitation)
same,Appearance in cyclodextrin,"HPβCD 25% w/w, ticagrelor 10 mg/ml, after 3 h of shaking",− (translucent solution with precipitation)
same,Appearance in cyclodextrin,"HPβCD 25% w/w, ticagrelor 10 mg/ml, after overnight shaking",− (translucent solution with precipitation)
same,Appearance in cyclodextrin,"HPβCD 25% w/w, ticagrelor 14 mg/ml, after 5 min of shaking",− (translucent solution with precipitation)
same,Appearance in cyclodextrin,"HPβCD 25% w/w, ticagrelor 14 mg/ml, after 30 min of shaking",− (translucent solution with precipitation)
same,Appearance in cyclodextrin,"HPβCD 25% w/w, ticagrelor 14 mg/ml, after 60 min of shaking",− (translucent solution with precipitation)
same,Appearance in cyclodextrin,"HPβCD 25% w/w, ticagrelor 14 mg/ml, after 3 h of shaking",− (translucent solution with precipitation)
same,Appearance in cyclodextrin,"HPβCD 25% w/w, ticagrelor 14 mg/ml, after overnight shaking",− (translucent solution with precipitation)
same,Appearance in cyclodextrin,"HPβCD 30% w/w, ticagrelor 5 mg/ml, after 5 min of shaking",− (translucent solution with precipitation)
same,Appearance in cyclodextrin,"HPβCD 30% w/w, ticagrelor 5 mg/ml, after 30 min of shaking",+/−
same,Appearance in cyclodextrin,"HPβCD 30% w/w, ticagrelor 5 mg/ml, after 60 min of shaking",+/−
same,Appearance in cyclodextrin,"HPβCD 30% w/w, ticagrelor 5 mg/ml, after 3 h of shaking",+/−
same,Appearance in cyclodextrin,"HPβCD 30% w/w, ticagrelor 5 mg/ml, after overnight shaking","+ (clear, appeared completely dissolved)"
same,Appearance in cyclodextrin,"HPβCD 30% w/w, ticagrelor 10 mg/ml, after 5 min of shaking",− (translucent solution with precipitation)
same,Appearance in cyclodextrin,"HPβCD 30% w/w, ticagrelor 10 mg/ml, after 30 min of shaking",− (translucent solution with precipitation)
same,Appearance in cyclodextrin,"HPβCD 30% w/w, ticagrelor 10 mg/ml, after 60 min of shaking",− (translucent solution with precipitation)
same,Appearance in cyclodextrin,"HPβCD 30% w/w, ticagrelor 10 mg/ml, after 3 h of shaking",− (translucent solution with precipitation)
same,Appearance in cyclodextrin,"HPβCD 30% w/w, ticagrelor 10 mg/ml, after overnight shaking",− (translucent solution with precipitation)
same,Appearance in cyclodextrin,"HPβCD 30% w/w, ticagrelor 14 mg/ml, after 5 min of shaking",− (translucent solution with precipitation)
same,Appearance in cyclodextrin,"HPβCD 30% w/w, ticagrelor 14 mg/ml, after 30 min of shaking",− (translucent solution with precipitation)
same,Appearance in cyclodextrin,"HPβCD 30% w/w, ticagrelor 14 mg/ml, after 60 min of shaking",− (translucent solution with precipitation)
same,Appearance in cyclodextrin,"HPβCD 30% w/w, ticagrelor 14 mg/ml, after 3 h of shaking",− (translucent solution with precipitation)
same,Appearance in cyclodextrin,"HPβCD 30% w/w, ticagrelor 14 mg/ml, after overnight shaking",− (translucent solution with precipitation)
same,Appearance in cyclodextrin,"HPβCD 35% w/w, ticagrelor 5 mg/ml, after 5 min of shaking",+/−
same,Appearance in cyclodextrin,"HPβCD 35% w/w, ticagrelor 5 mg/ml, after 30 min of shaking",+/−
same,Appearance in cyclodextrin,"HPβCD 35% w/w, ticagrelor 5 mg/ml, after 60 min of shaking",+/−
same,Appearance in cyclodextrin,"HPβCD 35% w/w, ticagrelor 5 mg/ml, after 3 h of shaking",+/−
same,Appearance in cyclodextrin,"HPβCD 35% w/w, ticagrelor 5 mg/ml, after overnight shaking","+ (clear, appeared completely dissolved)"
same,Appearance in cyclodextrin,"HPβCD 35% w/w, ticagrelor 10 mg/ml, after 5 min of shaking",− (translucent solution with precipitation)
same,Appearance in cyclodextrin,"HPβCD 35% w/w, ticagrelor 10 mg/ml, after 30 min of shaking",+/−
same,Appearance in cyclodextrin,"HPβCD 35% w/w, ticagrelor 10 mg/ml, after 60 min of shaking",+/−
same,Appearance in cyclodextrin,"HPβCD 35% w/w, ticagrelor 10 mg/ml, after 3 h of shaking",+/−
same,Appearance in cyclodextrin,"HPβCD 35% w/w, ticagrelor 10 mg/ml, after overnight shaking","+ (clear, appeared completely dissolved)"
same,Appearance in cyclodextrin,"HPβCD 35% w/w, ticagrelor 14 mg/ml, after 5 min of shaking",− (translucent solution with precipitation)
same,Appearance in cyclodextrin,"HPβCD 35% w/w, ticagrelor 14 mg/ml, after 30 min of shaking",+/−
same,Appearance in cyclodextrin,"HPβCD 35% w/w, ticagrelor 14 mg/ml, after 60 min of shaking",+/−
same,Appearance in cyclodextrin,"HPβCD 35% w/w, ticagrelor 14 mg/ml, after 3 h of shaking",+/−
same,Appearance in cyclodextrin,"HPβCD 35% w/w, ticagrelor 14 mg/ml, after overnight shaking",+/−
same,Appearance in cyclodextrin,"HPβCD 40% w/w, ticagrelor 5 mg/ml, after 5 min of shaking","+ (clear, appeared completely dissolved)"
same,Appearance in cyclodextrin,"HPβCD 40% w/w, ticagrelor 5 mg/ml, after 30 min of shaking","+ (clear, appeared completely dissolved)"
same,Appearance in cyclodextrin,"HPβCD 40% w/w, ticagrelor 5 mg/ml, after 60 min of shaking","+ (clear, appeared completely dissolved)"
same,Appearance in cyclodextrin,"HPβCD 40% w/w, ticagrelor 5 mg/ml, after 3 h of shaking","+ (clear, appeared completely dissolved)"
same,Appearance in cyclodextrin,"HPβCD 40% w/w, ticagrelor 5 mg/ml, after overnight shaking","+ (clear, appeared completely dissolved)"
same,Appearance in cyclodextrin,"HPβCD 40% w/w, ticagrelor 10 mg/ml, after 5 min of shaking",− (translucent solution with precipitation)
same,Appearance in cyclodextrin,"HPβCD 40% w/w, ticagrelor 10 mg/ml, after 30 min of shaking",+/−
same,Appearance in cyclodextrin,"HPβCD 40% w/w, ticagrelor 10 mg/ml, after 60 min of shaking",+/−
same,Appearance in cyclodextrin,"HPβCD 40% w/w, ticagrelor 10 mg/ml, after 3 h of shaking",+/−
same,Appearance in cyclodextrin,"HPβCD 40% w/w, ticagrelor 10 mg/ml, after overnight shaking","+ (clear, appeared completely dissolved)"
same,Appearance in cyclodextrin,"HPβCD 40% w/w, ticagrelor 14 mg/ml, after 5 min of shaking",− (translucent solution with precipitation)

# Reference: patent US20260007599A1, “TICAGRELOR IV FORMULATIONS FOR USE IN THE TREATMENT OF GRAM-POSITIVE BACTEREMIA” (Hyloris Developments SA, priority 2023, published 2026)
